Key:
[1] = tested on: PI3-K/Akt signaling; format: cell-based, human; settings: HEL; 10 min stimulation; IMC-3G3 2 μg/ml or Gleevec 100 nM; p-Akt Ser 473
Experimental: HEL cells pretreated with blocking reagents (as indicated; 30 min, 37 C) were stimulated for 10 min with HCMV, PDGF-AA (5 ng/ml), or mock-treated. Cell lysates were collected in RIPA buffer (supplemented with protease and phosphatase inhibitors) and subjected to Western blot analysis.
For stimulation experiments, cells were serum-starved for 24 h, followed by stimulation with HCMV (MOI of 0.5), PDGF-AA (5-10 ng/ml, from R&D Systems), or mock, for 10 minutes. In some cases, cells were pre-treated with IMC-3G3 (ImClone Inc.) at 10 g/ml (2 or 12 h) or Gleevec® (100 nM, 1 h) prior to HCMV exposure. Cell lysates were analyzed by SDS-PAGE. Antibodies used were as follows: polyclonal anti-PDGFRα ( 1/500), phosphor-Tyrosine clone 4G10 ( 1/1000), and monoclonal anti-p85 PI3-K ( 1/1000), (Upstate Biotechnology), anti HCMV IE1 MAB810 (Chemicon; 1/1000), anti HCMV pp65 (Novocastra, 1/1000), anti-phosphor-PDGFRα ( 1/500, pTyr 754), anti-phosphor-Akt (Ser 473, 1/1000) and total Akt ( 1/1000; all from Cell Signaling). Anti-actin polyclonal control antibody was used ( 1/500, Sigma). Immunoprecipitations were performed using protein G (Pierce) according to manufacturer's instructions.

[2] = molecular target: T1, human PDGFRα (Homo sapiens, UniProt P16234); assay: Human Phospho-PDGFRα ELISA; format: cell-based; settings: HEL; Towne, AD169 and TR strains; IMC-3G3 10 μg/ml, 2 h pretreatment; HCMV MOI=1, 10 min
T1 construct: HEL cells that endogenously express PDGFRα; endogenous in cells; host or cells: HEL human embryonic lung fibroblasts (ATCC)
Experimental: (A) HEL cells stimulated with HCMV or PDGF-AA were subjected to immunoprecipitation and western blot analyses with indicated antibodies. (B) Phospho-PDGFRα ELISA of cells+/−pretreatment with IMC-3G3 (10 μg/ml, 2 h) followed by HCMV (MOI=1) or PDGF (10 ng/ml) for 10 min. Mean values (n=6)±S.D are shown. (C) Western blot of HEL mock, HCMV, or PDGF-AA stimulated (10 min), +/−IMC-3G3 (2 μg/ml) or Gleevec® (Imatinib) (100 nM). The same membrane was used for p-Akt^Ser 473 and Akt.
(A) Immunofluorescence detection of gB (upper panels) and PDGFRα (lower panels) in PDGFRα KO cells and PDGFRα overexpressing (OE) cells, following incubation with the gB peptide or mock treatment. Reduced PDGFRα surface staining in gB-treated cells is likely due to receptor internalization. (B) and (C) Immunoprecipitation of PDGFRα and gB from HEL lysates and full-length soluble gB alone or pre-incubated together. Immunoprecipitates were subjected to western blot with the indicated antibodies. (D) ELISA of hPDGFRα phosphorylation after HCMV stimulation (MOI=1), PDGF (10 ng/ml) or recombinant soluble gB (30 μg/ml) in presence or absence of gB neutralizing antibodies 7-17 and Mab 758 (5 μg/ml); bars, ±S.D. (E) Portions of same lysates used in (D) were analyzed by western blot with indicated antibodies.
Human Phospho-PDGFRα ELISA. […] Reaction products were read using a microplate reader set at 450 nm. […]

T1 sequence (P16234 24-1089): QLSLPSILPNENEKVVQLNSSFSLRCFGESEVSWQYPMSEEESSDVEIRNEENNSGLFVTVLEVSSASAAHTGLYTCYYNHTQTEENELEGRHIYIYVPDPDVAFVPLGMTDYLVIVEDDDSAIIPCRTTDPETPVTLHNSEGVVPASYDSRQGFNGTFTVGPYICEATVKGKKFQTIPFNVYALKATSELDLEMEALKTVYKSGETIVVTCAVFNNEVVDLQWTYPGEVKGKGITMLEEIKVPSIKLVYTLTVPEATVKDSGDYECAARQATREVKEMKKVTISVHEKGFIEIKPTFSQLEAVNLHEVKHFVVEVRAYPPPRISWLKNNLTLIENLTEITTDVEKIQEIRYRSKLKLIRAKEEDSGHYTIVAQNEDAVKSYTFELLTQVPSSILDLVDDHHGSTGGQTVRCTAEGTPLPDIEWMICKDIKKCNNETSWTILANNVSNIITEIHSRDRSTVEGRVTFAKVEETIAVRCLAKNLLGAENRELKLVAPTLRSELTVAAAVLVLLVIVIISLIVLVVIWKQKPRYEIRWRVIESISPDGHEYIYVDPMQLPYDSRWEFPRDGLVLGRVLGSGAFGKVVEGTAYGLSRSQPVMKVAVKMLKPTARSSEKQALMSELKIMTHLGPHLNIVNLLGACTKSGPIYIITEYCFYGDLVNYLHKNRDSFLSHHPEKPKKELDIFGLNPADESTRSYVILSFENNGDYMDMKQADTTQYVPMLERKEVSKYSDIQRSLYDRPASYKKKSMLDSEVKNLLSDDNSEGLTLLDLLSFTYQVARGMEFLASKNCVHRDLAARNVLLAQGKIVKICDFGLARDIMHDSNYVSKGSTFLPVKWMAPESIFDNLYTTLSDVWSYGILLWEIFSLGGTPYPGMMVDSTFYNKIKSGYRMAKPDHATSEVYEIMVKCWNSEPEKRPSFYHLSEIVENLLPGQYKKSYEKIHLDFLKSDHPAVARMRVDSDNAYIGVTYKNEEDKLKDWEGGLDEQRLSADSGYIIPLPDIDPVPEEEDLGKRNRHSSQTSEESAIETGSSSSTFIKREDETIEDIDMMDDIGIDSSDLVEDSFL

## IMC-3G3: humanized PDGFRα blocking antibody (ImClone Inc.)
[1]
  Akt phosphorylation induced by either HCMV or PDGF-AA: abolished
[2]
  PDGFRα phosphorylation induced by HCMV strains: significantly inhibited

— patent US9340788B2 (priority 2007, dated 2016)
